Source: US20050256103A1, “Indole derivative having piperidine ring” (Eisai Co., Ltd., priority 2004, published 2005)
Where two headings read alike, the source gives them in different places.

Legend:
5-HT1A receptor = target: T1, 5-HT1A receptor (Sus scrofa, UniProt A0A4X1UTF5); assay: Affinity for serotonin 1A receptor: inhibition of [3H]MPPF binding in swine hippocampal membrane fraction; conditions: for IC50: swine hippocampal membrane, 37°C 30 min; for L/H ratio: low affinity IC50 divided by high affinity IC50, 1 or smaller = no intrinsic activity, 2 or greater = intrinsic activity
T1 construct: Swine hippocampus was homogenized in a 50 mM Tris-Hcl buffer; from tissue; host or cells: swine hippocampus, membrane fraction
T1 sequence (A0A4X1UTF5 1-422): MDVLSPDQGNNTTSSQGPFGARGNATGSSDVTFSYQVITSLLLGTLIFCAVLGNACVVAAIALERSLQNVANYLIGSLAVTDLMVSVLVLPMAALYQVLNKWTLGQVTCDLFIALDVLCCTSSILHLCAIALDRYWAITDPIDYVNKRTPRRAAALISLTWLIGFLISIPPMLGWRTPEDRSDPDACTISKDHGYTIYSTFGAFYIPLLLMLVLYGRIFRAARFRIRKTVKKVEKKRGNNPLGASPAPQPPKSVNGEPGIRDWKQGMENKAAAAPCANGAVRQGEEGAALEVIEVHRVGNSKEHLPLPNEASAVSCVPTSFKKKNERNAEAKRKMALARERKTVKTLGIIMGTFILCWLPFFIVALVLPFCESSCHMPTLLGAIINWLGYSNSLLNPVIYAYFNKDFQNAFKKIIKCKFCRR
Text: (1) The affinity of a test substance for a 5-HT1A receptor was examined by an inhibition experiment, in which the inhibitory effect of the test substance against the binding of [^3H]-4-(2′-methoxy)phenyl-1-(2′-(N-2″-pyridinyl)-p-fluorobenzamido)ethyl-piperazine (MPPF) that selectively binds to the 5-HT1A receptor in a swine hippocampal membrane fraction was examined. The 5-HT1A receptor that is a G-protein binding receptor becomes a G-protein binding state with addition of MgCl2. In contrast, it becomes a G-protein non-binding state with addition of guanylylimido diphosphate (Gpp(NH)p). […] Thus, both the affinity of a test substance to the receptor that was in a state of not binding to the G-protein and the affinity of the test substance to the receptor that was in a state of binding to the G-protein were obtained. Then, the obtained values were compared to each other, so as to estimate the level of the intrinsic activity of the test substance. Theoretically, when the value (L/H) obtained by dividing the affinity of a test substance to the receptor that is in a low affinity state (IC50 value) by the affinity of a test substance to the receptor that is in a high affinity state (IC50 value) is 1 or less, the intrinsic activity thereof is zero. The greater this value, the higher the intrinsic activity that can be obtained.
Swine hippocampus was homogenized in a 50 mM Tris-Hcl buffer (pH 7.4; hereinafter referred to as buffer A) that had been cooled on ice. The suspension was centrifuged at 40,000×g for 15 minutes. The obtained pellet was suspended in buffer solution A, and the thus obtained solution was then centrifuged at 40,000×g for 15 minutes. The same operation was repeated 2 or 3 times. The finally obtained pellet was suspended in a buffer solution A in an amount 10 times the wet weight of the swine hippocampus, so as to obtain a membrane fraction. The obtained membrane fraction was stored at −80° C. until use.
A mixture (0.5 ml) used for incubation comprised an appropriate amount of the membrane fraction, a test substance with a desired concentration, MgCl2 (final concentration: 10 mM) or Gpp(NH)p (final concentration: 1 mM), [^3H]MPPF (final concentration: 0.5 nM), dimethyl sulfoxide (final concentration: 1% (v/v)), and a 50 mM Tris-Hcl buffer (pH 7.4). The reaction was initiated with addition of the membrane fraction, and the mixture was incubated at 37° C. for 30 minutes. After completion of the incubation, the mixture was subjected to vacuum filtration with a glass filter, using Cell Harvester. The filter was washed with buffer solution A that had been cooled on ice. Thereafter, radioactivity binding to the receptor was measured with a liquid scintillation counter. Non-specific binding was defined as binding detected in the presence of 10 μM WAY-100,635.

serotonin 1A receptor = target: T2, serotonin 1A receptor (Mus musculus, UniProt Q64264); assay: Antagonistic effect on serotonin 1A receptor agonist (8-OH-DPAT)-induced hypothermia in mouse; type: in vivo; conditions: CD-1 (ICR) male mice; inhibition of hypothermia by 8-OH-DPAT 0.5 mg/kg sc; test substance 15 minutes before agonist
T2 construct: into the rectum of CD-1 (ICR) male mice (25-45 g); from tissue; host or cells: living CD-1 (ICR) male mice (in vivo)
T2 sequence (Q64264 1-421): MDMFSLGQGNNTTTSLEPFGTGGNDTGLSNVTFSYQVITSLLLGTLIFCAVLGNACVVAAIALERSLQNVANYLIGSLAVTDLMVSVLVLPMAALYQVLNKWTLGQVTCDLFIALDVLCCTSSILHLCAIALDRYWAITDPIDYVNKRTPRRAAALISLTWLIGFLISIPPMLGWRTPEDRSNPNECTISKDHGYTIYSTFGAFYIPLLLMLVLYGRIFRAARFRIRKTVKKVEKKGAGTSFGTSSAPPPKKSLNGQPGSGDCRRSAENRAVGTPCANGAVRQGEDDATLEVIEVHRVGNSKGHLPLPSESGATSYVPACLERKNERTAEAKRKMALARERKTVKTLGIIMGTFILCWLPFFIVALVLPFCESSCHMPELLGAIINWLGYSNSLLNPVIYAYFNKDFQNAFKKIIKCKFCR
Description: (1) A thermistor probe was inserted at a depth of approximately 2 cm into the rectum of CD-1 (ICR) male mice (25-45 g), so as to measure the body temperature thereof. Body temperature is decreased by subcutaneous administration of serotonin 1A receptor agonist (8-hydroxy-dipropylaminotetralin (8-OH-DPAT) 0;5 mg/kg. Since a serotonin 1A antagonist inhibits such action, the antagonistic effect of a test substance to a serotonin 1A receptor was evaluated using the inhibitory effect of the hypothermia as an index. The test results are shown in Table 2 indicated below. A test substance was administered 15 minutes before the administration of the serotonin 1A agonist. A serotonin 1A partial agonist alone decreases the body temperature, depending on the degree of the agonistic action thereof. In addition, it has a weak antagonistic effect on 8-OH-DPAT-induced hypothermia.

[1] = [3H]MPPF 0.5 nM, receptor in high affinity (G-protein binding, MgCl2 10 mM) state, read-out: High affinity IC50
[2] = [3H]MPPF 0.5 nM, receptor in low affinity (G-protein non-binding, Gpp(NH)p 1 mM) state, read-out: Low affinity IC50
[3] = High affinity IC50, [3H]MPPF 0.5 nM, receptor in high affinity (G-protein binding, MgCl2 10 mM) state
[4] = Low affinity IC50, [3H]MPPF 0.5 nM, receptor in low affinity (G-protein non-binding, Gpp(NH)p 1 mM) state

| SMILES | IC50 (5-HT1A receptor; [1]) [nM] | IC50 (5-HT1A receptor; [2]) [nM] | L/H ratio (5-HT1A receptor) | ED50 (serotonin 1A receptor) | IC50 (5-HT1A receptor; [3]) [nM] | IC50 (5-HT1A receptor; [4]) [nM] |
| --- | --- | --- | --- | --- | --- | --- |
| COc1cc2nc(C)oc2cc1CCN1CCC(n2ccc3ccc(C(N)=O)cc32)CC1 [Compound 8, 1-{1-[2-(5-methoxy-2-methylbenzoxazol-6-yl)ethyl]piperidin-4-yl}-1H-indole-6-carboxamide] | 0.22 | 0.23 | 1 | 0.07 mg/kg, sc |  |  |
| COc1ccc2c(C)noc2c1CCN1CCC(n2ccc3ccc(C(N)=O)cc32)CC1 [Compound 1, 1-{1-[2-(6-methoxy-3-methylbenz[d]isoxazol-7-yl)ethyl]piperidin-4-yl}-1H-indole-6-carboxamide] |  |  | 1.6 | 0.3 mg/kg, sc | 0.16 | 0.26 |
| COc1cc2cccnc2cc1CCN1CCC(n2ccc3ccc(C(N)=O)cc32)CC1 [Compound 51, 1-{1-[2-(6-methoxyquinolin-7-yl)ethyl]piperidin-4-yl}-1H-indole-6-carboxamide] |  |  | 0.9 | 0.66 mg/kg, sc | 0.18 | 0.17 |
| CNC(=O)c1ccc2ccn(C3CCN(CCc4c(OC)ccc5c4OC(C)(C)CC5O)CC3)c2c1 (stereo not drawn) [Compound 48, 1-{1-[2-(4-hydroxy-7-methoxy-2,2-dimethylchroman-8-yl)ethyl]piperidin-4-yl}-N-methyl-1H-indole-6-carboxamide] | 1.2 | 1.1 | 0.9 | 0.06 mg/kg, sc |  |  |
| CCn1c(=O)oc2cc(OC)c(CCN3CCC(n4ccc5ccc(C(N)=O)cc54)CC3)cc21 [Compound 60, 1-{1-[2-(3-ethyl-6-methoxy-2-oxo-2,3-dihydrobenzoxazol-5-yl)ethyl]piperidin-4-yl}-1H-indole-6-carboxamide] | 0.28 | 0.24 | 0.9 | 0.52 mg/kg, sc |  |  |
| COc1ccc2c(c1CCN1CCC(n3ccc4ccc(C(N)=O)cc43)CC1)CCC2=O [Compound 25, 1-{1-[2-(5-methoxy-1-oxoindan-4-yl)ethyl]piperidin-4-yl}-1H-indole-6-carboxamide] | 0.18 | 0.16 | 0.9 | 0.1 mg/kg, sc |  |  |
| COc1ccc2c(c1CCN1CCC(n3ccc4ccc(C(N)=O)cc43)CC1)CCCN2C(C)=O [Compound 54, 1-{1-[2-(1-acetyl-6-methoxy-1,2,3,4-tetrahydroquinolin-5-yl)ethyl]piperidin-4-yl}-1H-indole-6-carboxamide] | 0.18 | 0.13 | 0.7 | 0.84 mg/kg, sc |  |  |

The remaining molecules from weak to strong by IC50 (5-HT1A receptor; [1]), led by results:

| IC50 (5-HT1A receptor; [1]) [nM] | IC50 (5-HT1A receptor; [2]) [nM] | L/H ratio (5-HT1A receptor) | ED50 (serotonin 1A receptor) | SMILES | IC50 (5-HT1A receptor; [3]) [nM] | IC50 (5-HT1A receptor; [4]) [nM] |
| --- | --- | --- | --- | --- | --- | --- |
| 0.26 | 0.2 | 0.8 | 0.37 mg/kg, sc | COc1ccc2c(c1CCN1CCC(n3ccc4ccc(C(N)=O)cc43)CC1)CCN(C)C2=O [Compound 34, 1-(1-(2-(6-methoxy-2-methyl-1-oxo-1,2,3,4-tetrahydroisoquinolin-5-yl)ethyl)piperidin-4-yl)-1H-indole-6-carboxamide] |  |  |
| 0.23 | 0.23 | 1 | 0.21 mg/kg, sc | COc1ccc2c(c1CCN1CCC(n3ccc4ccc(C(N)=O)cc43)CC1)OCCC2=O [Compound 47, 1-{1-[2-(7-methoxy-4-oxochroman-8-yl)ethyl]piperidin-4-yl}-1H-indole-6-carboxamide] |  |  |
| 0.22 | 0.17 | 0.8 | 0.3 mg/kg, sc | COc1cc2c(cc1CCN1CCC(n3ccc4ccc(C(N)=O)cc43)CC1)C(=O)CC(C)(C)O2 [Compound 24, 1-{1-[2-(7-methoxy-2,2-dimethyl-4-oxochroman-6-yl)ethyl]piperidin-4-yl}-1H-indole-6-carboxamide] |  |  |
| 0.22 | 0.27 | 1.2 | 0.28 mg/kg, sc | COc1ccc2c(c1CCN1CCC(n3ccc4ccc(C(N)=O)cc43)CC1)CCC2O (stereo not drawn) [Compound 49, 1-{1-[2-(1-hydroxy-5-methoxyindan-4-yl)ethyl]piperidin-4-yl}-1H-indole-6-carboxamide] |  |  |
| 0.2 | 0.13 | 0.7 | 0.19 mg/kg, sc | CNC(=O)c1ccc2ccn(C3CCN(CCc4cc5c(cc4OC)CCN(C)C5=O)CC3)c2c1 [Compound 38, 1-{1-[2-(6-methoxy-2-methyl-1-oxo-1,2,3,4-tetrahydroisoquinolin-7-yl)ethyl]piperidin-4-yl}-N-methyl-1H-indole-6-carboxamide] |  |  |
| 0.19 | 0.12 | 0.6 | 0.3 mg/kg, sc | CCN1C(=O)CCc2cc(OC)c(CCN3CCC(n4ccc5ccc(C(N)=O)cc54)CC3)cc21 [Compound 59, 1-{1-[2-(1-ethyl-6-methoxy-2-oxo-1,2,3,4-tetrahydroquinolin-7-yl)ethyl]piperidin-4-yl}-1H-indole-6-carboxamide] |  |  |
| 0.14 | 0.19 | 1.4 | 0.02 mg/kg, sc | COc1cc2nc(C)sc2cc1CCN1CCC(n2ccc3ccc(C(N)=O)cc32)CC1 [Compound 28, 1-{1-[2-(5-methoxy-2-methylbenzothiazol-6-yl)ethyl]piperidin-4-yl}-1H-indole-6-carboxamide] |  |  |
| 0.13 | 0.1 | 0.8 | 0.1 mg/kg, sc | COc1ccc2c(c1CCN1CCC(n3ccc4ccc(C(N)=O)cc43)CC1)OC(C)(C)CC2=O [Compound 22, 1-{1-[2-(7-methoxy-2,2-dimethyl-4-oxochroman-8-yl)ethyl]piperidin-4-yl}-1H-indole-6-carboxamide] |  |  |
